Laboratory results taken from patent publication US20040101828A1, “Method for analysis of the phenoptypic characteristics of the human immunodeficiency virus (HIV)” (priority 2000, published 2004).

Legend:
[1] = system: HIV virus (recombinant virus carrying reverse transcriptase from patient plasma); experiment: Recombinant virus assay (RVA): susceptibility to reverse transcriptase inhibitors, recombinant viruses from patient samples; format: cell-based, HIV-1; conditions: for median Resistance Index (RI) relative to NL43: 22 tested viruses from patients with ordinary treatment, 3 RVA replicates; for resistance levels (in words): sample R5
Method: (§1) The determination of the susceptibility of an HIV virus to a reverse transcriptase inhibitor is carried out in the following manner: 293 T cells are transfected with 7.5 μg of pSRT plasmid that is linearized by NruI, 0.1 μg of pVSV-G plasmid and 0.5 and 1 μg of the product that is obtained from the PCR reaction of the reverse transcription of HIV. The transfection precipitate is withdrawn from cells after 18 hours of incubation, and fresh growth medium is added. After 24 hours of cultivation, the supernatant is clarified by centrifuging (500 g, 15 minutes) and transferred to P4 indicating cells that were pre-incubated with serial dilutions of a reverse transcriptase inhibitor, in triplicate wells, for four hours. The range of inhibitor concentrations used varies according to the compounds. The signal that is produced by the activation of the marker gene was developed with CPRG for 48 hours as for the analysis of the susceptibility to a reverse transcriptase inhibitor, and index IC50 was calculated by using the median effect equation.
To determine if NL43 is a reference virus that is suitable for comparison with clinical isolates, a group of samples taken from patients with ordinary treatment was tested on 3 RVA replicates for their susceptibility to reverse transcriptase inhibitors.
The reproducibility of the method for determining the susceptibility of the recombinant virus (RVA) to reverse transcriptase inhibitors (RTI) was evaluated by a series of test on 5 samples, selected so as to represent a wide range of susceptibility profiles, between 4 and 8 tests per sample, by using RNA preparations and separate PCR reactions.

[2] = system: P4 cells; format: cell-based
Description: The inhibitor concentration ranges that are used are selected based on the cellular toxicity of each compound and the IC50/IC90, ratio for the susceptibility of the resistant isolates (Table 1). […] A range of four serial dilutions, beginning at […], was used for the abacavir, making it possible to detect up to 60× more resistance.

[3] = system: Reference Virus NL4-3; experiment: Recombinant virus assay (RVA): susceptibility to reverse transcriptase inhibitors, reference virus; format: cell-based, HIV-1
Method: as §1
The pSRT plasmid that brings a deletion in the region that codes for pol extending from codon 24 of reverse transcriptase (base 2618) to codon 432 of reverse transcriptase (base 3872) includes all of the mutations combined with a resistance phenomenon that are known to date. […]

[4] = system: HIV viruses (NL-DIM, NL4.3, LAI-L91H); experiment: Validation of fusion inhibitor susceptibility method: resistant recombinant viruses versus reference viruses T5A1 and LAI; format: cell-based, HIV-1
Method: The recombinations that are obtained by using for the amplification of stage (b) the pair of primers FuA: 5′ […]3′ (SEQ ID No: 23) and FuB: 5′ […]3′ (SEQ ID No: 24) followed by a second amplification, carried out with the primer: FuC: 5′ […]3′ (SEQ ID No: 25) and a mixture of the following primers: FuD1: 5′ […]3′ (SEQ ID No: 26) and FuD2: 5′ […]3′ (SEQ ID No: 27) are very effective.
Actually, to obtain a satisfactory viral production, 10-50 ng of PCR product, used in the recombination stage, is generally adequate. In this method that is intended to analyze the phenotypic fusion characteristic, a viral production corresponding to 50-400 ng/ml of p24 is obtained after transfection. For the infection of target cells, between 0.5 and 5 ng of p24/well (96-well plates) is used. The increase of the optical density that is obtained after infection of target cells is linear if the infection is conducted under these conditions.
To validate the analytical method that relates to the susceptibility of HIV viruses to fusion inhibitors, two fusion inhibitors have been used: a peptide derived from the distal helix sequence in the gp41 of HIV (called DP178 or T20) and a derivative of betulinic acid (RPR103611). For each inhibitor, the reduction of sensitivity of one or more resistant viruses (previously identified by other authors) relative to two reference viruses: a primary plasmatic virus T5A1 and a virus adapted to in-vitro cultivation (LAI) was carried out. All the viruses were produced by recombination.
The increases of IC50 for a strongly resistant NL-DIM virus (described by Rimsky, L. T. et al. J. Virol. 1998, Vol. 72, pages 896-993) and for the NL4.3 virus (which is partially resistant) were measured regarding this inhibitor.
The increase of IC50 of the LA1-L91H resistant virus (Labrosse, B. et al. J. Virol. 2000 Vol 74, pages 2142-2150) regarding this inhibitor has been measured.

[5] = molecular target: Envelope protein (gp41) of the NL4.3 reference virus (HIV-1); experiment: cell-based or functional assay
[6] = molecular target: Envelope protein (gp41) of the strongly resistant NL-DIM virus (HIV-1); experiment: cell-based or functional assay
[7] = sample R1 (69N/T, 70R), 6 tests
[8] = sample R2 (41L, 62V, 67N, 69N, 75I, 77L, 115F, 116Y, 151M, 181C, 184V, 190A, 208Y, 215F, 219Q), 6 tests
[9] = sample R3 (184V, 215F), 6 tests
[10] = sample R4 (41L, 67N, 69D, 184V, 190A, H208Y, 210W, 215Y), 5 tests
[11] = sample R5 (215Y, 41L, 74V, 100I, 103N), 5 tests

Molecule	Resistance Index, geometric mean (IC50 in the sample relative to NL43) [1, 7]	Resistance Index, geometric mean (IC50 in the sample relative to NL43) [1, 8]	Resistance Index, geometric mean (IC50 in the sample relative to NL43) [1, 9]	Resistance Index, geometric mean (IC50 in the sample relative to NL43) [1, 10]	Resistance Index, geometric mean (IC50 in the sample relative to NL43) [1, 11]	further results
Nc1ccn([C@@H]2CS[C@H](CO)O2)c(=O)n1 [3TC, lamivudine]	1.3	>f	>	>	1.8	median Resistance Index (RI) relative to NL43 [1]: ~1.22; resistance level (in words) ([1]; sample R3): high resistance level
Cc1cn([C@H]2C[C@H](N=[N+]=[N-])[C@@H](CO)O2)c(=O)[nH]c1=O [AZT, ziodvudine]	–	–	–	–	–	toxicity for the P4 cells [2]: > 300 μm
Nc1nc(NC2CC2)c2ncn([C@H]3C=C[C@@H](CO)C3)c2n1 [Abacavir]	1.1	>	4.3	6.1	1.7	index IC50 for the P4 cells (cellular toxicity) [2]: about 250 μM; IC50 index for the native stock of the virus [3]: about 3 μM
Cc1cn([C@H]2C=C[C@@H](CO)O2)c(=O)[nH]c1=O [D4T, stavudine]	–	–	–	–	–	median Resistance Index (RI) relative to NL43 [1]: around 0.92
O=c1[nH]cnc2c1ncn2[C@H]1CC[C@@H](CO)O1 [DDI]	1.4	26.9	3.1	3.0	2.6	–
O=C1Nc2ccc(Cl)cc2[C@@](C#CC2CC2)(C(F)(F)F)O1 [Efavirenz]	1.0	74.9	1.0	149.8	>	resistance levels (in words) [1]: high resistance levels
Cc1ccnc2c1NC(=O)c1cccnc1N2C1CC1 [Nevirapine]	–	–	–	–	–	resistance index ([1]; one virus carrying a mutation on codon 98 (A for S) of reverse transcriptase): 11.0; resistance levels (in words) [1]: high resistance levels
C=C(C)[C@@H]1CC[C@]2(C(=O)NCCCCCCCC(=O)N[C@@H](CC(C)C)[C@@H](O)CC(=O)O)CC[C@]3(C)[C@H](CC[C@@H]4[C@@]5(C)CC[C@H](O)C(C)(C)[C@@H]5CC[C@]43C)[C@@H]12 [RPR103611]	–	–	–	–	–	increase of IC50 ([4]; LAT-L91H resistant virus relative to LAI and to T5A1): greater than 100 ×
T20 fusion inhibitor, a peptide derived from the distal helix sequence in the gp41 of HIV (from UniProt P03377 643-678)	–	–	–	–	–	increase of IC50 relative to LAI [5]: 12.5 fold; increase of IC50 relative to T5A1 (printed 15A1) [5]: 10 fold; increase of the value of IC50 relative to LAI [6]: > 100 fold; increase of the value of IC50 relative to T5A1 [6]: 80 fold
enfuvirtide	–	–	–	–	–	increase of IC50 ([4]; partially resistant NL4.3 virus relative to 15A1): 10 ×; increase of IC50 ([4]; partially resistant NL4.3 virus relative to LAI): 12.5 ×; increase of the value of IC50 ([4]; strongly resistant DIM virus relative to LAI): more than 100 ×; increase of the value of IC50 ([4]; strongly resistant DIM virus relative to T5A1): 80 ×
